{"source": "patent EP4745153A1", "about": "“GLP-1, GIP AND GCG RECEPTOR […] USE THEREOF” (Jiangsu Hengrui Pharmaceuticals Co., Ltd., priority 2023, dated 2025)", "key": {"[1]": {"target": "T1, human GIPR (Homo sapiens, UniProt P48546)", "T1 construct": "expressed in transfected cells; host or cells: CHO-K1 clonal cell line", "T1 sequence (P48546 22-466)": "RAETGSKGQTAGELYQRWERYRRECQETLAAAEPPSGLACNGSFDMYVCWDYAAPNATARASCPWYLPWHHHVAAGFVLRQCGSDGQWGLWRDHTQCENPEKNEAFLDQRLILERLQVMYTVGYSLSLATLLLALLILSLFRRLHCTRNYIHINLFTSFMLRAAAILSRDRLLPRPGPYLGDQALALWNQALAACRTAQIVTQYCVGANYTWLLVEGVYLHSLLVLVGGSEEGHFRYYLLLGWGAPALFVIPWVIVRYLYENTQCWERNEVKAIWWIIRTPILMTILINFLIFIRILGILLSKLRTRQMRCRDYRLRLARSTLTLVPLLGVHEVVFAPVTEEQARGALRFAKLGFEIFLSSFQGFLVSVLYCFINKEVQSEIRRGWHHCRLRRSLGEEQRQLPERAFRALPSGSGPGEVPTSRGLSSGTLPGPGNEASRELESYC", "assay": "cAMP HTRF agonist activity assay in CHO-K1 cells expressing GIPR; also: 5% FBS, 0.1% Casein", "format": "cell-based", "details": "read-out: Activity against human GIPR (EC50 nM)", "experimental": "Functional activity was determined in CHO-K1 clonal cell lines expressing GIPR, GLP-1R, and GCGR. […] Each recipient cell (5000 cells/well) was added to an SV 96-well plate (Cisbio, 66PL96025) and incubated with the prepared polypeptide at 37°Cfor 30 min. The resulting increase in intracellular cAMP was quantitatively measured using the cAMP-GS dynamic HTRF assay kit (Cisbio, 62AM4PEJ). Briefly, the intracellular cAMP levels were determined by adding cAMP-d2 conjugate in cell lysis buffer, followed by the antibody anti-cAMP-Eu cryptate (also in cell lysis buffer).\nUsing the maximum response percentage vs. the added polypeptide concentration, the relative EC50 values were derived through nonlinear regression analysis and fitted to a four-parameter logarithmic equation. For specific data, refer to Tables 7-1 to 7-8 below. […]"}, "[2]": {"assay": "Pharmacokinetics in mice after single intravenous injection", "design": "species or system C57 mice", "details": "in vivo", "experimental": "Male C57 mice were used as test animals. The target compound was administered via a single intravenous injection, and the pharmacokinetic characteristics of the compound in C57 mice in vivo (plasma) were determined.\nMale C57 mice, weighing approximately 25g, aged 4-6 weeks. After preparing the polypeptide compound solution using 1×PBS dissolving solution, the compound was administered intravenously at a dose of 200 nmol/kg, where each compound was administered to 3 animals. Blood samples of 60 µL were collected at 5 min, 15 min, 0.5 h, 1 h, 2 h, 4 h, 6 h, 24 h, 48 h and 72 h after the infusion was completed and transferred to centrifuge tubes containing EDTA-K2 anticoagulant. Whole blood samples were centrifuged at 4000 g for 5 min at 4°C. Plasma was separated and plasma samples were frozen and stored at -80 °C.\nSample pretreatment method: 30 µL of plasma samples was taken, and 120 µL of 0.1% formic acid in methanol containing 1 ng/mL internal standard verapamil was added. The mixture was vortexed for 5 min, and centrifuged at 10000 rpm for 10 min at low temperature. 70 µL of supernatant was taken, and 70 µL of water was added and mixed well. Analysis was performed by LC-MS instrument.\nLC-MS analysis method: (1) chromatographic conditions: mobile phases A and B: 0.1% formic acid in water and 0.1% formic acid in acetonitrile, respectively; gradient elution mode; flow rate: 0.5 mL/min; injection volume: 10 µL; chromatographic column: nanomicro Unisil C18aq (4.6 mm × 150 mm, 5 µm); column temperature: 40°C. (2) Mass spectrometry conditions: For mass spectrometry, an electrospray ionization source (ESI), positive ion analysis mode, and multiple reaction monitoring (MRM) scanning mode were used.\nFor data processing, SCIEX OS (Version 2.1.6) software was used to quantify blood drug concentration data and PKSolver (Version 2.0) software was used to calculate pharmacokinetic parameters."}, "[3]": {"details": "mouse, male C57 mice, single intravenous dose 200 nmol/kg, plasma"}}, "note": "Where two headings read alike, the source gives them in different places. Starred links: 1 amine or outer side, 2 acyl side, 3 side chain; linkers in the order of their positions; H or OH if unused. Non-standard residues stand in square brackets, D forms with d. Residues, ends and D or L forms follow the SMILES beside them. Groups on a side chain read outwards from the residue. ξ: configuration not given here. *: point of attachment. C20 diacid = O=C(O)CCCCCCCCCCCCCCCCCCC(=O)*; γGlu = O=C(O)[C@H](CCC(=O)[*:2])N[*:1]; αMeK = C[C@](N)(CCCCN)C(=O)O; ξIva = CCC(C)(N)C(=O)O; AEEA = NCCOCCOCC(=O)O; Aib = CC(C)(N)C(=O)O", "data": [{"smiles": "CC[C@H](C)[C@H](NC(=O)[C@H](CO)NC(=O)[C@H](Cc1ccc(O)cc1)NC(=O)[C@H](CC(=O)O)NC(=O)[C@H](CO)NC(=O)[C@@H](NC(=O)[C@H](Cc1ccccc1)NC(=O)[C@@H](NC(=O)CNC(=O)[C@H](Cc1c[nH]cn1)NC(=O)C(C)(C)NC(=O)[C@@H](N)Cc1c[nH]cn1)[C@@H](C)O)[C@@H](C)O)C(=O)N[C@@H](CC(C)C)C(=O)N[C@@H](CC(C)C)C(=O)N[C@@H](CCC(=O)O)C(=O)N[C@@H](CCCCNC(=O)COCCOCCNC(=O)COCCOCCNC(=O)CC[C@H](NC(=O)CCCCCCCCCCCCCCCCCCC(=O)O)C(=O)O)C(=O)N[C@@H](CCC(N)=O)C(=O)N[C@@H](C)C(=O)N[C@@H](C)C(=O)N[C@@H](CCC(N)=O)C(=O)N[C@@H](CCC(=O)O)C(=O)N[C@@H](Cc1ccccc1)C(=O)N[C@H](C(=O)N[C@@H](CCC(=O)O)C(=O)N[C@@H](Cc1c[nH]c2ccccc12)C(=O)N[C@@H](CC(C)C)C(=O)N[C@@H](CC(C)C)C(=O)N[C@@H](C)C(=O)NCC(=O)NCC(=O)N1CCC[C@H]1C(=O)N[C@@H](CO)C(=O)N[C@@H](CO)C(=O)NCC(=O)N[C@@H](C)C(=O)N1CCC[C@H]1C(=O)N1CCC[C@H]1C(=O)N1CCC[C@H]1C(=O)N[C@@H](CO)C(N)=O)C(C)C", "note": "[Compound 0152] (H-H[Aib]HGTFTSDYSILLEK([AEEA-AEEA-γGlu-C20 diacid])QAAQEFVEWLLAGGPSSGAPPPS-NH2)", "values": [{"measurement": "EC50", "setting": "[1]", "result": 0.009, "unit": "nM"}]}, {"smiles": "CC[C@H](C)[C@H](NC(=O)[C@H](CO)NC(=O)[C@H](CC(C)C)NC(=O)[C@H](CC(=O)O)NC(=O)[C@H](CO)NC(=O)[C@@H](NC(=O)[C@H](Cc1ccccc1)NC(=O)[C@@H](NC(=O)CNC(=O)[C@H](Cc1c[nH]cn1)NC(=O)C(C)(C)NC(=O)[C@@H](N)Cc1c[nH]cn1)[C@@H](C)O)[C@@H](C)O)C(=O)N[C@@H](CC(C)C)C(=O)N[C@@H](CC(C)C)C(=O)N[C@@H](CCC(=O)O)C(=O)N[C@@H](CCCCNC(=O)COCCOCCNC(=O)COCCOCCNC(=O)CC[C@H](NC(=O)CCCCCCCCCCCCCCCCCCC(=O)O)C(=O)O)C(=O)N[C@@H](CCCCN)C(=O)N[C@@H](C)C(=O)N[C@@H](C)C(=O)NC(C)(CC)C(=O)N[C@@H](CCC(=O)O)C(=O)N[C@@H](Cc1ccccc1)C(=O)N[C@H](C(=O)N[C@@H](CCC(=O)O)C(=O)N[C@@H](Cc1c[nH]c2ccccc12)C(=O)N[C@@H](CC(C)C)C(=O)N[C@@H](CC(C)C)C(=O)N[C@@H](C)C(=O)NCC(=O)NCC(=O)N1CCC[C@H]1C(=O)N[C@@H](CO)C(=O)N[C@@H](CO)C(=O)NCC(=O)N[C@@H](C)C(=O)N1CCC[C@H]1C(=O)N1CCC[C@H]1C(=O)N1CCC[C@H]1C(=O)N[C@@H](CO)C(N)=O)C(C)C", "note": "(stereo partly drawn) [Compound 0136]", "values": [{"measurement": "EC50", "setting": "[1]", "result": 0.001, "unit": "nM"}]}, {"smiles": "CC[C@H](C)[C@H](NC(=O)[C@H](CC(C)C)NC(=O)[C@H](Cc1c[nH]c2ccccc12)NC(=O)[C@H](CCC(=O)O)NC(=O)[C@@H](NC(=O)[C@H](Cc1ccccc1)NC(=O)[C@H](CCC(=O)O)NC(=O)C(C)(CC)NC(=O)[C@H](C)NC(=O)[C@H](C)NC(=O)[C@H](CCCCN)NC(=O)[C@H](CCCCNC(=O)COCCOCCNC(=O)COCCOCCNC(=O)CC[C@H](NC(=O)CCCCCCCCCCCCCCCCCCC(=O)O)C(=O)O)NC(=O)[C@H](CCC(=O)O)NC(=O)[C@H](CC(C)C)NC(=O)[C@H](CC(C)C)NC(=O)[C@](C)(CCCCN)NC(=O)[C@H](CO)NC(=O)[C@H](Cc1ccc(O)cc1)NC(=O)[C@H](CC(=O)O)NC(=O)[C@H](CO)NC(=O)[C@@H](NC(=O)[C@H](Cc1ccccc1)NC(=O)[C@@H](NC(=O)CNC(=O)[C@H](Cc1c[nH]cn1)NC(=O)C(C)(C)NC(=O)[C@@H](N)Cc1c[nH]cn1)[C@@H](C)O)[C@@H](C)O)C(C)C)C(=O)N[C@@H](CCC(=O)O)C(=O)NCC(=O)NCC(=O)N1CCC[C@H]1C(=O)N[C@@H](CO)C(=O)N[C@@H](CO)C(=O)NCC(=O)N[C@@H](C)C(=O)N1CCC[C@H]1C(=O)N1CCC[C@H]1C(=O)N1CCC[C@H]1C(=O)N[C@@H](CO)C(N)=O", "note": "(stereo partly drawn) [Compound 0131] (H-H[Aib]HGTFTSDYS[αMeK]LLEK([AEEA-AEEA-γGlu-C20 diacid])KAA[ξIva]EFVEWLIEGGPSSGAPPPS-NH2)", "values": [{"measurement": "AUC(0-inf)", "setting": "[2]; [3]", "result": 22.5, "unit": "µM·h"}, {"measurement": "C0", "setting": "[2]; [3]", "result": 5.98, "unit": "µM"}, {"measurement": "clearance", "setting": "[2]; mouse, male C57 mice, single intravenous dose 200 nmol/kg, plasma, read-out: CLp", "result": 0.148, "unit": "mL/min/kg"}, {"measurement": "half-life", "setting": "[2]; mouse, male C57 mice, single intravenous dose 200 nmol/kg, plasma, read-out: T1/2 (converted)", "result": 10.2, "unit": "h"}]}, {"smiles": "CC[C@H](C)[C@H](NC(=O)[C@H](CO)NC(=O)[C@H](CC(C)C)NC(=O)[C@H](CC(=O)O)NC(=O)[C@H](CO)NC(=O)[C@@H](NC(=O)[C@H](Cc1ccccc1)NC(=O)[C@@H](NC(=O)CNC(=O)[C@H](Cc1c[nH]cn1)NC(=O)C(C)(C)NC(=O)[C@@H](N)Cc1c[nH]cn1)[C@@H](C)O)[C@@H](C)O)C(=O)N[C@@](C)(CC(C)C)C(=O)N[C@@H](CC(C)C)C(=O)N[C@@H](CCC(=O)O)C(=O)N[C@@H](CCCCNC(=O)COCCOCCNC(=O)COCCOCCNC(=O)CC[C@H](NC(=O)CCCCCCCCCCCCCCCCCCC(=O)O)C(=O)O)C(=O)N[C@@H](CCCCN)C(=O)N[C@@H](C)C(=O)N[C@@H](C)C(=O)NC1(C(=O)N[C@@H](CCC(=O)O)C(=O)N[C@@H](Cc2ccccc2)C(=O)N[C@H](C(=O)N[C@@H](CCC(=O)O)C(=O)N[C@@H](Cc2c[nH]c3ccccc23)C(=O)N[C@@H](CC(C)C)C(=O)N[C@@H](CC(C)C)C(=O)N[C@@H](C)C(=O)NCC(=O)NCC(=O)N2CCC[C@H]2C(=O)N[C@@H](CO)C(=O)N[C@@H](CO)C(=O)NCC(=O)N[C@@H](C)C(=O)N2CCC[C@H]2C(=O)N2CCC[C@H]2C(=O)N2CCC[C@H]2C(=O)N[C@@H](CO)C(N)=O)C(C)C)CCC1", "note": "[Compound 0140]", "values": [{"measurement": "clearance", "setting": "[2]; male, C57, mouse, iv", "result": 0.115, "unit": "mL/min/kg"}, {"measurement": "half-life", "setting": "[2]; male, C57, mouse, iv", "result": 9.3, "unit": "h"}]}, {"smiles": "CC[C@H](C)[C@H](NC(=O)[C@](C)(CCCCN)NC(=O)[C@H](CO)NC(=O)[C@H](Cc1ccc(O)cc1)NC(=O)[C@H](CC(=O)O)NC(=O)[C@H](CO)NC(=O)[C@@H](NC(=O)[C@H](Cc1ccccc1)NC(=O)[C@@H](NC(=O)CNC(=O)[C@H](CCC(N)=O)NC(=O)C(C)(C)NC(=O)[C@@H](N)Cc1ccc(O)cc1)[C@@H](C)O)[C@@H](C)O)C(=O)N[C@@H](CC(C)C)C(=O)N[C@@H](CCC(=O)O)C(=O)N[C@@H](CCCCNC(=O)COCCOCCNC(=O)COCCOCCNC(=O)CC[C@H](NC(=O)CCCCCCCCCCCCCCCCCCC(=O)O)C(=O)O)C(=O)N[C@@H](CCCCN)C(=O)N[C@@H](C)C(=O)N[C@@H](C)C(=O)NC(C)(CC)C(=O)N[C@@H](CCC(=O)O)C(=O)N[C@@H](Cc1ccccc1)C(=O)N[C@H](C(=O)N[C@@H](CCC(=O)O)C(=O)N[C@@H](Cc1c[nH]c2ccccc12)C(=O)N[C@@H](CC(C)C)C(=O)N[C@@H](CC(C)C)C(=O)N[C@@H](C)C(=O)NCC(=O)NCC(=O)N1CCC[C@H]1C(=O)N[C@@H](CO)C(=O)N[C@@H](CO)C(=O)NCC(=O)N[C@@H](C)C(=O)N1CCC[C@H]1C(=O)N1CCC[C@H]1C(=O)N1CCC[C@H]1C(=O)N[C@@H](CO)C(N)=O)C(C)C", "note": "(stereo partly drawn) [Compound 0129] (H-Y[Aib]QGTFTSDYS[αMeK]ILEK([AEEA-AEEA-γGlu-C20 diacid])KAA[ξIva]EFVEWLLAGGPSSGAPPPS-NH2)", "values": [{"measurement": "EC50", "setting": "[1]", "result": 0.002, "unit": "nM"}]}]}
